Reference: patent publication US20030171368A1, “Pyrimidinonesulfamoylureas`” (priority 2002, published 2003)
Values after ≈ are worked out from the molar mass of the structure shown.

Assays:
[1] = Solubility in water (10 mg in 1 ml H2O, shaken, centrifuged, HPLC against DMSO solution); format: physicochemical; conditions: 10 mg substance in 1 ml H2O, shaken 10 minutes, supernatant measured by HPLC; for solubility at 10 min: water, thermodynamic from solid
Method: The compounds of the general formula I according to the invention are distinguished in comparison to the substances described in WO 00/61551 by more advantageous physicochemical properties, in particular an improved solubility in water.
10 mg of the substance to be investigated were dissolved in 1 ml of DMSO, vigorously shaken for 10 minutes and then centrifuged for 10 minutes at 10000 rpm and diluted with a mixture of 5% CH3CN/H2O+0.1% TFA 1:10.
10 mg of substance were mixed with 1 ml of H2O, vigorously shaken for 10 minutes and centrifuged for 10 minutes at 10000 rpm. The supernatant was removed and likewise diluted. Both solutions were measured by HPLC (column: MACHEREY & NAGEL, Nucleosil C18 PPN, 100×2.1 mm ID, 5μ, temp: 40° C.) and the concentration of the aq. solution was determined.

[2] = target: T1, integrin αvβ3 (Homo sapiens, UniProt P05106+P06756); experiment: Integrin αvβ3 assay: competition between vitronectin and test substance for binding to solid phase-bound integrin αvβ3; conditions: competition with human vitronectin; result in words only
T1 construct: from tissue; host or cells: human placenta
Method: For the identification and assessment of integrin αvβ3 ligands, a test system was used which is based on competition between the natural integrin αvβ3 ligand vitronectin and the test substance for binding to solid phase-bound integrin αvβ3. […]
coat microtiter plates with 250 ng/ml of integrin αvβ3 in 0.05 M NaHCO3 pH 9.2; 0.1 ml/well; overnight/4° C. saturate with 1% milk powder/assay buffer; 0.3 ml/well; 0.5 h/RT wash 3× with 0.05% Tween 20/assay buffer test substance in 0.1% milk powder/assay buffer, 50 μl/well +0 μg/ml or 2 μg/ml of human vitronectin (Boehringer Ingelheim T007) in 0.1% milk powder/assay buffer, 50 μl/well; 1 h/RT […]
1 μg/ml of anti-human vitronectin antibody coupled to peroxidase (Kordia SAVN-APHRP) in 0.1% milk powder/assay buffer; 0.1 ml/well; 1 h/RT […]
0.1 ml/well of peroxidase substrate stop reaction with 0.1 ml/well of 2 M H2SO4 measurement of the absorption at 450 nm
Integrin αvβ3: Human placenta is solubilized with Nonidet and integrin αvβ3 is affinity-purified on a GRGDSPK matrix (elution mit EDTA). Impurities due to integrin […] and human serum albumin, and the detergent and EDTA are removed by anion exchange chromatography. […]

Row | Compound | solubility at 10 min [1] | Solubility (H2O) [1] | IC50 values (concentration of the ligand at which 50% of the ligand is displaced) [2]
1 | Cc1cn(C[C@H](NS(C)(=O)=O)C(=O)O)c(=O)nc1N1CCC(CNc2nc3ccccc3[nH]2)CC1.Cl [(2S)-3-(4-{4-[(1H-Benzimidazol-2-ylamino)methyl]-1-piperidinyl}-5-methyl-2-oxo-1(2H)-pyrimidinyl)-2-[(methylsulfonyl)amino]propanoic acid (hydrochloride)] | < 50 µg/mL |  | 
2 | CC(=O)O.Cc1cn(C[C@H](NS(=O)(=O)c2ccccc2)C(=O)O)c(=O)nc1N1CCC(CNc2nc3ccccc3[nH]2)CC1 [(2S)-3-(4-{4-[(1H-Benzimidazol-2-ylamino)methyl]-1-piperidinyl}-5-methyl-2-oxo-1(2H)-pyrimidinyl)-2-[(phenylsulfonyl)amino]propanoic acid (acetate)] | < 50 µg/mL |  | 
3 | Cc1cn(C[C@H](NC(=O)N(C)C)C(=O)O)c(=O)nc1N1CCC(CNc2nc3ccccc3[nH]2)CC1.Cl [(2S)-3-(4-{4-[(1H-Benzimidazol-2-ylamino)methyl]-1-piperidinyl}-5-methyl-2-oxo-1(2H)-pyrimidinyl)-2-{[(dimethylamino)carbonyl]amino}propanoic acid (hydrochloride)] | 810 µg/mL |  | 
4 | Cc1cn(C[C@H](NS(=O)(=O)N(C)C)C(=O)O)c(=O)nc1N1CCC(CNc2nc3ccccc3[nH]2)CC1.Cl.Cl [Example 2, (2S)-3-(4-{4-[(1H-Benzimidazol-2-ylamino)methyl]-1-piperidinyl}-5-methyl-2-oxo-1 (2H)-pyrimidinyl)-2-{[(dimethylamino)sulfonyl]amino}propionic acid (dihydrochloride)] | 2500 µg/mL |  | best results
5 | Cc1cn(C[C@H](NS(=O)(=O)N(C)C)C(=O)O)c(=O)nc1N1CCC(CNc2ccccn2)CC1 [Example 9, (2S)-2-{[(Dimethylamino)sulfonyl]amino}-3-(5-methyl-2-oxo-4-{4-[(2-pyridinylamino)-methyl]-1-piperidinyl}-1 (2H)-pyrimidinyl)propionic acid] |  |  | best results

Further lines, results first:

Row | solubility at 10 min [1] | Solubility (H2O) [1] | IC50 values (concentration of the ligand at which 50% of the ligand is displaced) [2] | Compound
6 | 1000 µg/mL |  |  | CC(=O)N[C@@H](Cn1cc(C)c(N2CCC(CNc3nc4ccccc4[nH]3)CC2)nc1=O)C(=O)O.Cl [(2S)-2-(Acetylamino)-3-(4-{4-[(1H-benzimidazol-2-ylamino)methyl]-1-piperidinyl}-5-methyl-2-oxo-1(2H)-pyrimidinyl)propanoic acid (hydrochloride)]
7 | 860 µg/mL (≈ 1730 µM) |  |  | CCNC(=O)N[C@@H](Cn1cc(C)c(N2CCC(CNc3nc4ccccc4[nH]3)CC2)nc1=O)C(=O)O [(2S)-3-(4-{4-[(1H-Benzimidazol-2-ylamino)methyl]-1-piperidinyl}-5-methyl-2-oxo-1(2H)-pyrimidinyl)-2-{[(ethylamino)carbonyl]amino}propanoic acid]
8 |  | 560 µg/mL |  | CCOC(=O)N[C@@H](Cn1cc(C)c(N2CCC(CNc3nc4ccccc4[nH]3)CC2)nc1=O)C(=O)O.Cl [(2S)-3-(4-{4-[(1H-Benzimidazol-2-ylamino)methyl]-1-piperidlnyl}-5-methyl-2-oxo-1(2H)-pyrimidinyl)-2-[(ethoxycarbonyl)amino]propanoic acid (hydrochloride)]
